Laboratory results as given in publication PMC8661809 (Protein Science : A Publication of the Protein Society, 2021).

Molecular target: CTD of SARS‐CoV‐2 N protein (Severe acute respiratory syndrome coronavirus 2, UniProt P0DTC9)
Assay: biochemical
Type: binding

Compound `Nc1ncnc2c1ncn2[C@@H]1O[C@H](COP(=O)(O)OP(=O)(O)OP(=O)(O)O)[C@@H](O)[C@H]1O` [ATP] has a Kd of 1490 ± 280 µM.
